How the values were obtained:
S. pneumoniae D39V [1] = test: Bliss interaction score (quartile over a dose matrix) (fitness difference); higher = more antagonism (negative = synergy)
Summary of the method: (§1)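 Growth in each well was taken as OD595 at entry into stationary phase. Dividing by the plate's robust no-drug mean and capping at 1 gave fitness, and single-drug fitness was inferred from the combination data. The Bliss score, observed minus product-expected fitness, is summarised by quartiles over technical, biological and donor/recipient replicates.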

B. subtilis 168 [2] = test: as above
Summary of the method: as §1

S. aureus Newman [3] = test: as above
Summary of the method: as §1

S. aureus DSM 20231 = test: as above
Summary of the method: as §1

S. pneumoniae D39V [4] = test: fitness (endpoint OD595 vs no drug) (fraction); higher = more growth
Summary of the method: (§2)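 In 384-well plates at 37 °C, cultures began at OD595 0.01 in 30 µl, with 55 µl used for S. pneumoniae. OD595 readings every 30 min for 14 h were corrected by the first reading. Fitness divides the stationary-phase transition optical density by the robust mean of no-drug control wells. The result is capped at 1.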

B. subtilis 168 [5] = test: as above
Summary of the method: as §2

S. aureus Newman [6] = test: as above
Summary of the method: as §2
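Wherever Bliss interaction score (quartile over a dose matrix) is given: first quartile when negative (synergy) and third quartile when positive (antagonism).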

Cn1c2cccc(=O)c-2nc2ccccc21 [Pyocyanin] + CN(C)c1cc(NC(=O)CNC(C)(C)C)c(O)c2c1C[C@H]1C[C@H]3[C@H](N(C)C)C(O)=C(C(N)=O)C(=O)[C@@]3(O)C(O)=C1C2=O [Tigecycline]
Conditions	Bliss interaction score
B. subtilis 168 [2]	-0.04
S. aureus DSM 20231	-0.0925
S. aureus Newman [3]	0.0936
S. pneumoniae D39V [1]	0.0539

fitness
Conditions	first compound 0.325 µg/mL	first compound 0.65 µg/mL	first compound 1.25 µg/mL	first compound 1.3 µg/mL	first compound 2.5 µg/mL	first compound 5 µg/mL
B. subtilis 168 [5], partner 0.039 µg/mL	–	–	0.956	–	0.903	0.786
B. subtilis 168 [5], partner 0.078 µg/mL	–	–	0.953	–	0.876	0.747
B. subtilis 168 [5], partner 0.156 µg/mL	–	–	0.935	–	0.863	0.762
S. aureus Newman [6], partner 0.039 µg/mL	–	–	0.879	–	0.81	0.426
S. aureus Newman [6], partner 0.078 µg/mL	–	–	0.854	–	0.808	0.412
S. aureus Newman [6], partner 0.156 µg/mL	–	–	0.886	–	0.807	0.401
S. pneumoniae D39V [4], partner 0.65 µg/mL	0.965	0.975	–	0.697	–	–
S. pneumoniae D39V [4], partner 1.3 µg/mL	≥ 1	0.966	–	0.708	–	–
S. pneumoniae D39V [4], partner 2.6 µg/mL	0.979	0.928	–	0.668	–	–

fitness, B. subtilis 168 [5], one replicate
Conditions	first compound 1.25 µg/mL	first compound 2.5 µg/mL	first compound 5 µg/mL
partner 0.125 µg/mL	0.964	0.97	0.955
partner 0.25 µg/mL	0.865	0.847	0.882
partner 0.5 µg/mL	0.91	0.867	0.801

Cn1c2cccc(=O)c-2nc2ccccc21 [Pyocyanin] + CN[C@@H]1[C@H](O[C@H]2[C@H](O[C@H]3[C@H](O)[C@@H](O)[C@H](N=C(N)N)[C@@H](O)[C@@H]3N=C(N)N)O[C@@H](C)[C@]2(O)C=O)O[C@@H](CO)[C@H](O)[C@H]1O [Streptomycin]
Conditions	Bliss interaction score
B. subtilis 168 [2]	0.474
S. aureus DSM 20231	0.109
S. aureus Newman [3]	-0.0643
S. pneumoniae D39V [1]	-0.103

fitness
Conditions	partner 1 µg/mL	partner 2 µg/mL	partner 4 µg/mL	partner 8 µg/mL
B. subtilis 168 [5], first compound 1.25 µg/mL	–	0.938	0.765	–
B. subtilis 168 [5], first compound 2.5 µg/mL	–	0.929	0.879	–
B. subtilis 168 [5], first compound 5 µg/mL	–	0.818	0.791	0.686
S. aureus Newman [6], first compound 1.25 µg/mL	0.891	0.844	–	–
S. aureus Newman [6], first compound 2.5 µg/mL	0.796	0.693	–	–
S. aureus Newman [6], first compound 5 µg/mL	0.427	0.308	0.253	–
S. pneumoniae D39V [4], first compound 0.325 µg/mL	–	≥ 1	≥ 1	0.935
S. pneumoniae D39V [4], first compound 0.65 µg/mL	–	0.943	0.889	0.791
S. pneumoniae D39V [4], first compound 1.3 µg/mL	–	–	0.734	0.592

fitness, S. pneumoniae D39V [4], one replicate
Conditions	first compound 0.325 µg/mL	first compound 0.65 µg/mL	first compound 1.3 µg/mL
partner 2 µg/mL	–	–	0.756
partner 16 µg/mL	0.649	0.61	0.475

CN(N=O)C(=O)N[C@@H](C=O)[C@@H](O)[C@H](O)[C@H](O)CO [Streptozotocin] + CN(C)c1cc(NC(=O)CNC(C)(C)C)c(O)c2c1C[C@H]1C[C@H]3[C@H](N(C)C)C(O)=C(C(N)=O)C(=O)[C@@]3(O)C(O)=C1C2=O [Tigecycline]
Conditions	Bliss interaction score
B. subtilis 168 [2]	-0.0405
S. aureus DSM 20231	0.0681
S. aureus Newman [3]	0.0493
S. pneumoniae D39V [1]	0.0675

fitness
Conditions	first compound 0.15 µg/mL	first compound 0.3 µg/mL	first compound 0.6 µg/mL	first compound 1.2 µg/mL	first compound 2.4 µg/mL	first compound 4.8 µg/mL
S. aureus Newman [6], partner 0.039 µg/mL	0.829	0.711	0.555	–	–	–
S. aureus Newman [6], partner 0.078 µg/mL	0.837	0.685	0.504	–	–	–
S. aureus Newman [6], partner 0.156 µg/mL	0.904	0.711	0.511	–	–	–
S. pneumoniae D39V [4], partner 0.65 µg/mL	–	–	–	0.934	0.965	0.973
S. pneumoniae D39V [4], partner 1.3 µg/mL	–	–	–	0.952	0.987	0.939
S. pneumoniae D39V [4], partner 2.6 µg/mL	–	–	–	0.964	0.948	0.956

fitness, B. subtilis 168 [5], one replicate
Conditions	partner 0.039 µg/mL	partner 0.078 µg/mL	partner 0.125 µg/mL	partner 0.156 µg/mL	partner 0.25 µg/mL	partner 0.5 µg/mL
first compound 0.15 µg/mL	0.936	0.975	0.958	0.877	0.892	0.921
first compound 0.3 µg/mL	≥ 1	≥ 1	0.995	0.907	0.836	0.86
first compound 0.6 µg/mL	≥ 1	0.956	0.961	0.99	0.83	0.904

Cc1cc(NS(=O)(=O)c2ccc(N)cc2)no1 [Sulfamethoxazol] + CN(C)c1cc(NC(=O)CNC(C)(C)C)c(O)c2c1C[C@H]1C[C@H]3[C@H](N(C)C)C(O)=C(C(N)=O)C(=O)[C@@]3(O)C(O)=C1C2=O [Tigecycline]
Conditions	Bliss interaction score
B. subtilis 168 [2]	0.0319
S. aureus DSM 20231	0.108
S. aureus Newman [3]	0.0399
S. pneumoniae D39V [1]	0.0567

fitness
Conditions	first compound 1 µg/mL	first compound 2 µg/mL	first compound 4 µg/mL
B. subtilis 168 [5], partner 0.039 µg/mL	0.917	0.92	≥ 1
B. subtilis 168 [5], partner 0.078 µg/mL	0.903	0.921	0.97
B. subtilis 168 [5], partner 0.156 µg/mL	0.911	0.897	0.982
S. aureus Newman [6], partner 0.039 µg/mL	0.991	0.996	≥ 1
S. aureus Newman [6], partner 0.078 µg/mL	0.982	0.999	0.966
S. aureus Newman [6], partner 0.156 µg/mL	0.986	0.983	≥ 1
S. pneumoniae D39V [4], partner 0.65 µg/mL	0.944	0.961	0.937
S. pneumoniae D39V [4], partner 1.3 µg/mL	0.952	0.932	0.937
S. pneumoniae D39V [4], partner 2.6 µg/mL	0.936	0.937	0.95

fitness, one replicate
Conditions	partner 0.039 µg/mL	partner 0.078 µg/mL	partner 0.125 µg/mL	partner 0.156 µg/mL	partner 0.25 µg/mL	partner 0.5 µg/mL
B. subtilis 168 [5], first compound 0.5 µg/mL	≥ 1	0.989	–	0.959	–	–
B. subtilis 168 [5], first compound 1 µg/mL	–	–	0.963	–	0.923	0.903
B. subtilis 168 [5], first compound 2 µg/mL	–	–	0.942	–	0.88	0.859
B. subtilis 168 [5], first compound 4 µg/mL	–	–	0.922	–	0.899	0.925
S. aureus Newman [6], first compound 8 µg/mL	0.856	0.865	–	0.934	–	–

Source: the supplement of paper PMC10627819
